The values below come from patent publication US12162867B2, “Inhibitors of RNA helicase DHX9 and uses thereof” (ACCENT THERAPEUTICS, INC., priority 2022, dated 2024).

Holding throughout (type): cell-based
One experiment deals with LS411N cells. Briefly: DHX9 cellular proliferation assay (CellTiter-Glo), LS411N (CRC-MSI). As to conditions: Homo sapiens, LS-411N, LS411N, performed at Pharmaron, read-out: LS411N (CRC-MSI-H) Antiproliferative IC50. Background: ATP-based viability assays read luminescence as a measure of living cells.
The subject of another experiment is NCI-H747 cells. In words: DHX9 cellular proliferation assay (CellTiter-Glo), NCI-H747 (CRC-MSS). The settings on record: Homo sapiens, performed at Pharmaron, read-out: H747 (CRC-MSS) Antiproliferative IC50.
Experiment [1] concerns circBRIP1 in HCT116 cells. Briefly: DHX9 circBRIP1 cellular target engagement TaqMan Multiplex assay (qPCR). As to conditions: Homo sapiens, read-out: DHX9 Cellular Target Engagement EC50. A general note: Real-time PCR tracks product formation cycle by cycle.
The mark [2] stands for this setting: HCT-116, circBRIP1, HCT116 cells, * Taqman assay was used.
Setting [3] is: HCT-116, 72 h, circBRIP1, HCT116 cells, 72 hours, Taqman assay (marked *).

The structures appear in SMILES notation. Where two headings read alike, the source gives them in different places.

The IC50 is the concentration that gives 50% inhibition. The term EC50 denotes the concentration needed to bring the measured effect to its halfway point. In the case of `Cn1cc(C(=O)Nc2cc(Cl)cc(NS(C)(=O)=O)c2)cc1-c1ncc(N2CCC3(CC2)COC3)cc1F` [Example 475], the IC50 in the experiment on LS411N cells was found to be 0.0812 µM; with NCI-H747 cells (NCI-H747, NCI-H747), 8.77 µM. Moreover, in experiment [1] (setting [2]), the EC50 is 0.0315 µM.

As to `Cc1cc(C(=O)Nc2cc(Cl)cc(NS(C)(=O)=O)c2)cn1-c1ccc(N2CC3COCC3C2)cn1` (stereo not drawn) [Example 405], the IC50 in the experiment with LS411N cells is 0.116 µM; with NCI-H747 cells (NCI-H747, NCI-H747), over 10 µM. Besides, the EC50 in experiment [1] (setting [2]) came to 0.0261 µM.

As to `CCOc1cnc(-c2cc(C(=O)Nc3cc(Cl)cc(NS(=O)(=O)CC)c3)sc2C)nc1` [Example 365], the IC50 with LS411N cells (CRC-MSI-H) was 0.116 µM; in the experiment with NCI-H747 cells (NCI-H747, NCI-H747, CRC-MSS), over 10 µM. For the same compound, the concentration for a half-maximal effect (EC50) in experiment [1] (setting [3]) turned out to be 0.0339 µM.

In the case of `Cc1sc(C(=O)Nc2cc(Cl)cc(NS(C)(=O)=O)c2)cc1-c1ccc(C2CN(CC(F)(F)F)C2)cn1` [Example 710], the IC50 in the experiment with LS411N cells came out at 0.0481 µM; with NCI-H747 cells (NCI-H747, NCI-H747) it was 5.4 µM. For the same compound, the EC50 in experiment [1] (setting [2]) is 0.0107 µM.

Regarding `Cn1cc(C(=O)Nc2cc(Cl)cc(NS(C)(=O)=O)c2)cc1-c1ncc(N2CC3(C2)CC(F)(F)C3)cc1F` [Example 702], the IC50 in the experiment on LS411N cells is 0.224 µM; in the experiment with NCI-H747 cells (NCI-H747, NCI-H747) it was 8.12 µM. The EC50 in experiment [1] (setting [2]) was determined as 0.0316 µM.

As to `CCOc1cnc(-c2cc(C(=O)Nc3cc(Cl)cc(NS(C)(=O)=O)c3)cn2C)c(F)c1` [Example 453], the IC50 was 0.218 µM with LS411N cells and 6.55 µM in the experiment on NCI-H747 cells (NCI-H747, NCI-H747). Also, the EC50 in experiment [1] (setting [2]) was found to be 0.0546 µM.

For `Cc1cc(C#N)cnc1-c1cc(C(=O)Nc2cc(Cl)cc(NS(C)(=O)=O)c2)sc1C` [Example 376], the IC50 in the experiment with LS411N cells (CRC-MSI-H) is 0.303 µM; in the experiment with NCI-H747 cells (NCI-H747, NCI-H747, CRC-MSS), over 10 µM. For the same compound, the EC50 in experiment [1] (setting [3]) was 0.0699 µM.

Take `COc1cnc(-c2cc(C(=O)Nc3cc(Cl)cc(NS(C)(=O)=O)c3)cn2C)c(F)c1` [Example 454]: the IC50 in the experiment on LS411N cells turned out to be 0.218 µM; in the experiment with NCI-H747 cells (NCI-H747, NCI-H747), 5.81 µM. The EC50 in experiment [1] (setting [2]) was determined as 0.0182 µM.

As for `Cc1sc(C(=O)Nc2cc(Cl)cc(NS(C)(=O)=O)c2)cc1-c1ccc(N2CC(C(F)(F)F)C2)cn1` [Example 496], the concentration for half-maximal inhibition (IC50) in the experiment on LS411N cells turned out to be 0.0482 µM; in the experiment with NCI-H747 cells (NCI-H747, NCI-H747), 2.02 µM. The EC50 in experiment [1] (setting [2]) came to 0.0233 µM.

As for `Cc1sc(C(=O)Nc2cc(Cl)cc(NS(C)(=O)=O)c2)cc1-c1ncc(N2CC(F)(F)C2)cc1F` [Example 532, N-(3-chloro-5-methanesulfonamidophenyl)-4-[5-(3,3-difluoroazetidin-1-yl)-3-fluoropyridin-2-yl]-5-methylthiophene-2-carboxamide], the IC50 was determined as 0.1 µM in the experiment on LS411N cells and 4.2 µM in the experiment on NCI-H747 cells (NCI-H747, NCI-H747). Further, the EC50 in experiment [1] (setting [2]) was 0.0301 µM.

Consider `CCS(=O)(=O)Nc1cc(Cl)cc(NC(=O)c2cc(-c3ncc(F)cc3OCc3nccs3)c(C)s2)c1` [Example 622], for which the IC50 with LS411N cells is 0.0489 µM; in the experiment on NCI-H747 cells (NCI-H747, NCI-H747), over 10 µM. Moreover, the EC50 in experiment [1] (setting [2]) is 0.0559 µM.

For the compound `Cn1cc(C(=O)Nc2cc(Cl)cc(NS(C)(=O)=O)c2)cc1-c1ccc(N2CC(C(F)(F)F)C2)cn1` [Example 497], the concentration for half-maximal inhibition (IC50) with LS411N cells stood at 0.169 µM; with NCI-H747 cells (NCI-H747, NCI-H747), 2.49 µM. Further, the EC50 in experiment [1] (setting [2]) turned out to be 0.0437 µM.

Take `Cc1sc(C(=O)Nc2cc(Cl)cc(NS(=O)(=O)CCO)c2)cc1-c1ncccc1OCc1cncc(F)c1` [Example 626]: the half-maximal inhibitory concentration (IC50) is 0.137 µM with LS411N cells and over 10 µM in the experiment with NCI-H747 cells (NCI-H747, NCI-H747). Besides, the 50% effective concentration (EC50) in experiment [1] (setting [2]) is 0.0241 µM.

For `CCS(=O)(=O)Nc1cc(Cl)cc(NC(=O)c2cc(-c3ncc(OC)cn3)c(C)s2)c1` [Example 353], the concentration for half-maximal inhibition (IC50) was 0.111 µM in the experiment with LS411N cells (CRC-MSI-H) and 8.49 µM with NCI-H747 cells (NCI-H747, NCI-H747, CRC-MSS). For the same compound, in experiment [1] (setting [3]), the EC50 was 0.094 µM.

For `Cn1cc(C(=O)Nc2cc(Cl)cc(NS(C)(=O)=O)c2)cc1-c1c(F)cc(F)cc1F` [Example 547], the IC50 with LS411N cells worked out at 0.173 µM; in the experiment with NCI-H747 cells (NCI-H747, NCI-H747), 5.43 µM. For the same compound, the EC50 in experiment [1] (setting [2]) is 0.127 µM.

Consider `CC(C)Oc1ccc(-c2csc(C(=O)Nc3cc(Cl)cc(NS(C)(=O)=O)c3)c2)nc1` [Example 459], for which the IC50 with LS411N cells amounted to 0.0937 µM; in the experiment with NCI-H747 cells (NCI-H747, NCI-H747), 2.66 µM. Besides, in experiment [1] (setting [2]), the EC50 came out at 0.0582 µM.

With `CS(=O)(=O)Nc1cc(Cl)cc(NC(=O)c2cc(-c3ncc(N4CC(C(F)(F)F)C4)cn3)n(CC(F)F)c2)c1` [Example 508], the IC50 with LS411N cells stood at 0.108 µM; in the experiment on NCI-H747 cells (NCI-H747, NCI-H747), 6.46 µM. In addition, in experiment [1] (setting [2]), the EC50 is 0.0634 µM.

Regarding `Cn1cc(C(=O)Nc2cc(Cl)cc(NS(C)(=O)=O)c2)cc1-c1ncc(N2CC(F)C2)cn1` [Example 598], the IC50 is 0.174 µM in the experiment with LS411N cells and over 10 µM in the experiment with NCI-H747 cells (NCI-H747, NCI-H747). The EC50 in experiment [1] (setting [2]) is 0.0506 µM.

`Cc1cc(C(=O)Nc2cc(Cl)cc(NS(C)(=O)=O)c2)cn1-c1ccc(N2C3CCC2CC3)cn1` [Example 523]: the IC50 came to 0.174 µM in the experiment on LS411N cells and 5.95 µM in the experiment on NCI-H747 cells (NCI-H747, NCI-H747). The EC50 in experiment [1] (setting [2]) worked out at 0.0572 µM.

Take `CCS(=O)(=O)Nc1cc(Cl)cc(NC(=O)c2cc(-c3ncc(C)cc3F)n(C)c2)c1` [Example 548]: the IC50 with LS411N cells amounted to 0.226 µM; in the experiment on NCI-H747 cells (NCI-H747, NCI-H747), 6.46 µM. The EC50 in experiment [1] (setting [2]) was 0.0804 µM.

Consider `Cc1sc(C(=O)Nc2cc(Cl)cc(NS(C)(=O)=O)c2)cc1-c1ncc(F)cc1F` [Example 349], for which the IC50 with LS411N cells (CRC-MSI-H) is 0.154 µM; with NCI-H747 cells (NCI-H747, NCI-H747, CRC-MSS) it was over 10 µM. Further, in experiment [1] (setting [3]), the 50% effective concentration (EC50) is 0.0582 µM.

With `Cc1sc(C(=O)Nc2cc(Cl)cc(NS(C)(=O)=O)c2)cc1-c1ncc(N2CCC(F)(F)C2)cn1` [Example 479], the IC50 in the experiment on LS411N cells was 0.0374 µM; in the experiment on NCI-H747 cells (NCI-H747, NCI-H747), 7.41 µM. In addition, in experiment [1] (setting [2]), the EC50 is 0.0169 µM.

As to `Cc1cc(C(=O)Nc2cc(Cl)cc(NS(C)(=O)=O)c2)cn1-c1ncc(N2CC(F)(F)C2)cc1OCC(F)(F)F` [Example 708], the IC50 came to 0.14 µM with LS411N cells and 6.46 µM in the experiment with NCI-H747 cells (NCI-H747, NCI-H747). For the same compound, the EC50 in experiment [1] (setting [2]) is 0.0926 µM.

For `CCS(=O)(=O)Nc1cc(Cl)cc(NC(=O)c2cc(-c3ncc(N4CC(F)(F)C4)cn3)c(C)s2)c1` [Example 463], the half-maximal inhibitory concentration (IC50) with LS411N cells was 0.0593 µM; with NCI-H747 cells (NCI-H747, NCI-H747), over 10 µM. Besides, the EC50 in experiment [1] (setting [2]) is 0.018 µM.

In the case of `CCOc1cnc(-c2cc(C(=O)Nc3cc(Cl)cc(NS(C)(=O)=O)c3)sc2C)c(F)c1` [Example 456], the half-maximal inhibitory concentration (IC50) in the experiment on LS411N cells amounted to 0.209 µM; with NCI-H747 cells (NCI-H747, NCI-H747), 1.94 µM. The EC50 in experiment [1] (setting [2]) stood at 0.0328 µM.

As for `Cc1sc(C(=O)Nc2cc(Cl)cc(NS(C)(=O)=O)c2)cc1-c1ncc(C2CCN(CC(F)(F)F)CC2)cc1F` [Example 618], the IC50 stood at 0.132 µM in the experiment with LS411N cells and 1.85 µM in the experiment on NCI-H747 cells (NCI-H747, NCI-H747). For the same compound, the EC50 in experiment [1] (setting [2]) is 0.0454 µM.

For the compound `COc1ccc(-c2cc(C(=O)Nc3cc(Cl)cc(NS(C)(=O)=O)c3)sc2C)nc1` [Example 352], the IC50 is 0.05 µM with LS411N cells (CRC-MSI-H) and 8.75 µM in the experiment with NCI-H747 cells (NCI-H747, NCI-H747, CRC-MSS). Further, in experiment [1] (setting [3]), the 50% effective concentration (EC50) amounted to 0.021 µM.

For `Cc1sc(C(=O)Nc2cc(F)cc(NS(C)(=O)=O)c2)cc1-c1ncc(N2CC(C(F)(F)F)C2)cc1F` [Example 501], the IC50 in the experiment with LS411N cells amounted to 0.274 µM; with NCI-H747 cells (NCI-H747, NCI-H747), 7.26 µM. Further, the EC50 in experiment [1] (setting [2]) amounted to 0.0933 µM.

In the case of `Cn1cc(C(=O)Nc2cc(Cl)cc(NS(C)(=O)=O)c2)cc1-c1cccc(N2CC(F)(F)C2)n1` [Example 551], the half-inhibitory concentration (IC50) was 0.225 µM in the experiment on LS411N cells and 3.5 µM with NCI-H747 cells (NCI-H747, NCI-H747). Also, the EC50 in experiment [1] (setting [2]) was determined as 0.127 µM.

Consider `CC(C)(C)Oc1cnc(-c2csc(C(=O)Nc3cc(Cl)cc(NS(C)(=O)=O)c3)c2)nc1` [Example 379], for which the IC50 in the experiment on LS411N cells (CRC-MSI-H) was found to be 0.083 µM; in the experiment on NCI-H747 cells (NCI-H747, NCI-H747, CRC-MSS) it was 4.71 µM. Besides, the EC50 in experiment [1] (setting [3]) was 0.0566 µM.

For the compound `Cn1cc(C(=O)Nc2cc(Cl)cc(NS(C)(=O)=O)c2)cc1-c1ncc(OC2CN(CC(F)F)C2)cc1F` [Example 614], the IC50 is 0.0531 µM in the experiment with LS411N cells and 3.19 µM with NCI-H747 cells (NCI-H747, NCI-H747). In addition, the EC50 in experiment [1] (setting [2]) was 0.0269 µM.
